Experimental findings from article PMC10185354, “MyosinA is a druggable target in the widespread protozoan parasite Toxoplasma gondii” (PLOS Biology, 2023) are described below.

Structures are written as SMILES.

Experiment [1] addresses T1, TgMyoA (myosinA) (Toxoplasma gondii, UniProt O00934).
T1 construct: recombinant TgMyoA heavy chain co-expressed with TgMLC1 and TgELC1 in Sf9 cells; with TgMLC1, TgELC1
The experiment is described as follows: actin-activated ATPase (ADP-Glo) at […] compound; partial inhibition. The class given is biochemical.

Experiment [2] deals with T1, TgMyoA (myosinA). Put plainly: actin-activated ATPase (ADP-Glo) at […] compound. The class given is biochemical.

Consider `Cc1ccc(C2(NCc3c[nH]nc3-c3cccs3)CC2)cc1` [VEST3], for which the “actin-activated ATPase (ADP-Glo) at 20 μM compound; partial inhibition” value in experiment [1] was “partially retained in analogs containing p-Me (VEST3) or m,p-dichloro (VEST4) substituents”.

As for `Clc1ccc(C2(NCc3c[nH]nc3-c3cccs3)CC2)cc1` [VEST2], in experiment [2], the “actin-activated ATPase (ADP-Glo) at 20 μM compound” value is “inhibition of both in vitro ATPase activity and parasite growth were retained when the p-OMe substituent in KNX-002 was replaced”.

For the molecule `Clc1ccc(C2(NCc3c[nH]nc3-c3cccs3)CC2)cc1Cl` [VEST4], the “actin-activated ATPase (ADP-Glo) at 20 μM compound; partial inhibition” value in experiment [1] is “partially retained in analogs containing p-Me (VEST3) or m,p-dichloro (VEST4) substituents”.
